Results as given in paper PMC12164026, “Plant-derived nodule-specific cysteine-rich peptides as potent antifungal agents against Cryptococcus neoformans: mechanisms of action, chimeric peptide enhancement, and immunomodulatory effects” (Current Research in Microbial Sciences, 2025).
Peptide text beside a SMILES is read from it.

Assays:
[1] = system: C. neoformans IFM 5844 protoplasts; assay: Susceptibility of protoplasts to peptide, CFU counts; type: cell-based, Cryptococcus neoformans; conditions: 30 min, YNB + 0.8 M sorbitol
Description: The C. neoformans IFM 5844 strain was grown in YPD nutrient solution at 30 °C for 12 h by vigorous shaking until the exponential phase was reached (about 5 × 10^7 cells/mL).
For protoplast preparation cells were harvested by centrifugation and re-suspended in 20 mL of pre-treatment buffer (10 mM Tris–HCl, pH 9; 5 mM EDTA-Na2) supplemented with 0.1 % 2-mercaptoethanol. After incubation at room temperature for 20 min, the samples were centrifuged and the cell pellet was washed with 0.8 M sorbitol solution. The pellet was then re-suspended in 20 mL of protoplasting solution (prepared by dissolving 1 g lyophilised Helix pomatia digestive enzyme in 100 mL sorbitol) and the suspension was incubated for 60 min at room temperature. Protoplast formation was monitored every 30 min under bright field microscope. Once formed, protoplasts were collected by centrifugation, washed twice with 0.8 M sorbitol, and their concentration was determined in a Bürker chamber.
To assess peptide susceptibility, 2 × 10^6 protoplasts and the same number of intact cells were treated separately with X1-NCR247C peptide at 0.78 or 0.39 µM in YNB supplemented with 0.8 M sorbitol for 30 min at 30 °C. […] Plates were incubated for 3 days at 30 °C, after which colony forming units were counted to determine the survival rate of peptide-treated cells and protoplasts.

[2] = system: Cryptococcus neoformans IFM 5844; assay: Minimal fungicidal concentration (MFC) determination, spotting on YPD; type: cell-based; conditions: cultures from MIC assays diluted and spotted onto solid YPD, 30 °C, 48 h
Description: Minimal fungicidal concentration (MFC) determination. To assess fungicidal activity, both control and peptide-treated cultures from the MIC assays were diluted 10-fold and 100-fold in sterile distilled water. Five µL from each dilution was then spotted onto solid YPD medium (1 % pepton, 1 % dextrose, 0.5 % yeast extract, 2 % agar). The plates were incubated at 30 °C for 48 h and fungal growth was evaluated. MFC was defined as the lowest peptide concentration at which no visible fungal growth was detected, indicating complete fungicidal activity.

[3] = system: C. neoformans IFM 5844 cells; assay: Short-term sub-MIC killing, CFU counts; type: cell-based, Cryptococcus neoformans; conditions: for proportion of viable cells (CFU relative to control): 0.19 µM (half-MIC), YNB, 2 × 10^6 cells/mL; for reduction in colony-forming units: 30 min
Description: To assess the time-dependent fungicidal activity of X1-NCR247C, C. neoformans cells cultivated for 16 h at 30 °C were collected by centrifugation and washed twice with sterile distilled water. […] Following treatment, cells were pelleted by centrifugation washed with distilled water and serially diluted 10-fold and 100-fold. Fifty microliters of each dilution were plated onto solid YPD medium in triplicate.
After treatment, the cells were pelleted by centrifugation, washed with distilled water and serially diluted 10-fold and 100-fold. Fifty microliters of each dilution were spread onto solid YPD medium in triplicate. For both experimental setups colony forming unit (CFU) counts were determined after 48-hours incubation at 30 °C. The CFU values of peptide-treated samples were compared to untreated control samples, providing insights into the extent of fungal viability reduction. Three independent biological replicates were performed.

Compound: CSCC[C@H](NC(=O)[C@H](CCCCN)NC(=O)[C@H](Cc1ccccc1)NC(=O)[C@H](CC(N)=O)NC(=O)[C@H](CC(C)C)NC(=O)[C@@H]1CCCN1C(=O)[C@@H](N)CCCNC(=N)N)C(=O)N[C@@H](CC(C)C)C(=O)N[C@@H](CCCNC(=N)N)C(=O)N[C@@H](Cc1ccccc1)C(=O)N[C@@H](Cc1c[nH]c2ccccc12)C(=O)NCC(=O)N[C@@H](CCC(N)=O)C(=O)N[C@@H](CCC(N)=O)C(=O)N[C@@H](CCC(N)=O)C(=O)N[C@@H](CS)C(=O)N[C@@H](CCCNC(=N)N)C(=O)N[C@@H](CCCNC(=N)N)C(=O)N1CCC[C@H]1C(=O)N[C@@H](CC(C)C)C(=O)N[C@@H](Cc1ccc(O)cc1)C(=O)N[C@@H](CS)C(=O)N[C@@H](CCCNC(=N)N)C(=O)N[C@@H](CCCNC(=N)N)C(=O)N[C@@H](CCCNC(=N)N)C(N)=O [X1-NCR247C] (H-RPLNFKMLRFWGQQQCRRPLYCRRR-NH2; N-terminus assumed)
- CFU count reduction relative to untreated control ([1]; 0.39 µM): 43%
- CFU count reduction relative to untreated control ([1]; 0.78 µM): 83%
- fungistatic or fungicide mode of action [2]: fungicidal effect
- proportion of viable cells (CFU relative to control) ([3]; 5 min): 25%
- proportion of viable cells (CFU relative to control) ([3]; 60 min): 5%
- reduction in colony-forming units ([3]; half-MIC (0.19 µM), p ≤ 0.001): highly significant decrease
- reduction in colony-forming units ([3]; quarter-MIC, p ≤ 0.05): notable reduction
